Test system: colitis resulted by administration of an aqueous solution of dextran sulfate in rats
Assay: Dextran sulfate-induced colitis in rats (Test Example 1)
Format: in vivo, rat
Conditions: F 334 rats, 3% dextran sulfate in drinking water for 5 days, 5 mg/kg orally twice daily
Experimental: Rats (males; eight weeks age) of an F 334 strain (Japan SLC) were allowed free access to a 3% aqueous solution of dextran sulfate for five days and, after that, they were allowed free access to tap water for one day. The test substance was orally administered twice daily at the start of drinking of a 3% aqueous solution of dextran sulfate. After six days from the initiation of the administration, the large intestine was excised and its length was measured. With regard to the symptom score, (1) stool consistency, (2) fecal blood and (3) degree of body weight reduction from the previous day were evaluated in five stages as shown in the following Table 1 and a mean value thereof was calculated. As to the test substance, the compound A (5 mg/kg) was used. The test substance was administered by suspending in a 0.5% aqueous solution of methyl cellulose. A 0.5% aqueous solution of methyl cellulose was administered to the control group. Ten rats per group were used. [table] With regard to shortening of the large intestine, significant difference from the control group was tested by a t-test (*: p<0.05). With regard to the symptom score of colitis, significant difference from the control group was tested by a t-test (##: p<0.01).

CC(C)N(CCCCOCC(=O)NS(C)(=O)=O)c1cnc(-c2ccccc2)c(-c2ccccc2)n1 [compound A, 2-{4-[N-(5,6-diphenylpyrazin-2-yl)-N-isopropylamino]butyl-oxy}-N-(methylsulfonyl)acetamide]
shortening of large intestine (length of the large intestine) (large intestine excised after six days, t-test vs control p<0.05, FIG. 1): significantly suppressed
symptom score of colitis (stool consistency, fecal blood, body weight reduction) (t-test vs control p<0.01, FIG. 2): significantly suppressed
